Measured values taken from patent US7405240B2, “Substituted cyclopentanes or cyclopentanones as therapeutic agents” (Allergan, Inc., priority 2006, dated 2008).

Tests used:
hEP2 [1] = biological target: T1, hEP2 (Homo sapiens, UniProt P43116); assay: Competition binding, [3H]PGE2, human EP2 receptors; design: expressed in transfected cells; host or cells: HEK 293; settings: [3H]PGE2, HEK 293 cells stably expressing human EP2; read-out: hEP2 Ki
Method: Competition binding experiments were performed in a medium containing Hank's balanced salt solution, Hepes 20 mM, pH 7.3, membranes (˜60 μg protein) or 2×10^5 cells from HEK 293 cells stably expressing human EP2 receptors, [^3H]PGE2 (10 nM) and various concentrations of test compounds in a total volume of 300 μl. Reaction mixtures were incubated at 23° C. for 60 min, and were filtered over Whatman GF/B filters under vacuum. Filters were washed three times with 5 ml ice-cold buffer containing 50 mM Tris/HCl (pH 7.3). Non-specific binding was estimated in the presence of excess unlabeled PGE2 (10 μM). Binding data fitted to the binding model for a single class of binding sites, using nonlinear regression analysis. IC50 values thus obtained were converted to Ki using the equation of Ki=(IC50/(1+[L]/KD) where [L] represents PGE2 concentration (10 nM) and KD the dissociation constant for [^3H]PGE2 at human EP2 receptors (40 nM).
(§1) HEK-293 cells stably expressing the human or feline FP receptor, or EP1, EP2, or EP4 receptors were washed with TME buffer, scraped from the bottom of the flasks, and homogenized for 30 sec using a Brinkman PT 10/35 polytron. TME buffer was added to achieve a final 40 ml volume in the centrifuge tubes (the composition of TME is 100 mM TRIS base, 20 mM MgCl2, […]; 10N HCl is added to achieve a pH of 7.4).
(§2) The cell homogenate was centrifuged at 19000 r.p.m. for 20 min at 4° C. using a Beckman Ti-60 rotor. The resultant pellet was resuspended in TME buffer to give a final 1 mg/ml protein concentration, as determined by Biorad assay. Radioligand binding competition assays vs. [3H-] 17-phenyl PGF2, (5 nM) were performed in a 100 μl volume for 60 min. Binding reactions were started by adding plasma membrane fraction. The reaction was terminated by the addition of 4 ml ice-cold TRIS-HCl buffer and rapid filtration through glass fiber GF/B filters using a Brandel cell harvester. The filters were washed 3 times with ice-cold buffer and oven dried for one hour.
(§3) [^3H-] PGE2 (specific activity 180 Ci mmol) was used as the radioligand for EP receptors. [^3H] 17-phenyl PGF2, was employed for FP receptor binding studies. Binding studies employing EP1, EP2, EP4 and FP receptors were performed in duplicate in at least three separate experiments. A […] assay volume was used. Incubations were for 60 min at 25° C. and were terminated by the addition of 4 ml of ice-cold 50 mM TRIS-HCl, followed by rapid filtration through Whatman GF/B filters and three additional 4 ml washes in a cell harvester (Brandel). Competition studies were performed using a final concentration of 5 nM [^3H]-PGE2, or 5 nM [^3H] 17-phenyl PGF2, and non-specific binding determined with 10^−5M of unlabeled PGE2, or 17-phenyl PGF2α, according to receptor subtype studied.

hEP4 = hEP4 (Homo sapiens, UniProt P35408); assay: Radioligand binding, EP4 receptor; design: expressed in transfected cells; host or cells: HEK-293; settings: [3H]PGE2, HEK-293 cells expressing EP4
Method: as §1, §2, §3

hEP2 [2] = biological target: T1, hEP2; assay: FLIPR calcium signal, hEP2; type: cell-based; design: expressed in transfected cells; host or cells: HEK-293(EBNA); settings: HEK-293(EBNA) cells expressing hEP2/Gqs5
Method: Methods for FLIPR™ Studies
HEK-293(EBNA) cells, stably expressing one type or subtype of recombinant human prostaglandin receptors (prostaglandin receptors expressed: hDP/Gqs5; hEP1; hEP2/Gqs5; hEP3A/Gqi5; hEP4/Gqs5; hFP; hIP; hTP), were cultured in 100 mm culture dishes in high-glucose DMEM medium containing 10% fetal bovine serum, 2 mM 1-glutamine, 250 μg/ml geneticin (G418) and 200 μg/ml hygromycin B as selection markers, and 100 units/ml penicillin G, 100 μg/ml streptomycin and 0.25 μg/ml amphotericin B.
Cells were seeded at a density of 5×10^4 cells per well in Biocoat® Poly-D-lysine-coated black-wall, clear-bottom 96-well plates (Becton-Dickinson) and allowed to attach overnight in an incubator at 37° C. Cells were then washed two times with HBSS-HEPES buffer (Hanks Balanced Salt Solution without bicarbonate and phenol red, 20 mM HEPES, pH 7.4) using a Denley Cellwash plate washer (Labsystems). After 45 minutes of dye-loading in the dark, using the calcium-sensitive dye Fluo-4 AM at a final concentration of 2 μM, plates were washed four times with HBSS-HEPES buffer to remove excess dye leaving 100 μl in each well. Plates were re-equilibrated to 37° C. for a few minutes.
Cells were excited with an Argon laser at 488 nm, and emission was measured through a 510-570 nm bandwidth emission filter (FLIPR™, Molecular Devices, Sunnyvale, Calif.). Drug solution was added in a 50 μl volume to each well to give the desired final concentration. The peak increase in fluorescence intensity was recorded for each well. On each plate, four wells each served as negative (HBSS-HEPES buffer) and positive controls (standard agonists: BW245C (hDP); PGE2 (hEP1; hEP2/Gqs5; hEP3A/Gqi5; hEP4/Gqs5); PGF2α (hFP); carbacyclin (hIP); U-46619 (hTP), depending on receptor). The peak fluorescence change in each drug-containing well was then expressed relative to the controls.
Compounds were tested in a high-throughput (HTS) or concentration-response (CoRe) format. In the HTS format, forty-four compounds per plate were examined in duplicates at a concentration of 10^−5 M. To generate concentration-response curves, four compounds per plate were tested in duplicates in a concentration range between 10^−5 and 10^−11 M. The duplicate values were averaged. In either, HTS or CoRe format each compound was tested on at least 3 separate plates using cells from different passages to give an n≧3.

hEP2 [3] = biological target: T1, hEP2; assay: cAMP assay, hEP2; type: cell-based

hEP4, sequence (P35408 whole entry): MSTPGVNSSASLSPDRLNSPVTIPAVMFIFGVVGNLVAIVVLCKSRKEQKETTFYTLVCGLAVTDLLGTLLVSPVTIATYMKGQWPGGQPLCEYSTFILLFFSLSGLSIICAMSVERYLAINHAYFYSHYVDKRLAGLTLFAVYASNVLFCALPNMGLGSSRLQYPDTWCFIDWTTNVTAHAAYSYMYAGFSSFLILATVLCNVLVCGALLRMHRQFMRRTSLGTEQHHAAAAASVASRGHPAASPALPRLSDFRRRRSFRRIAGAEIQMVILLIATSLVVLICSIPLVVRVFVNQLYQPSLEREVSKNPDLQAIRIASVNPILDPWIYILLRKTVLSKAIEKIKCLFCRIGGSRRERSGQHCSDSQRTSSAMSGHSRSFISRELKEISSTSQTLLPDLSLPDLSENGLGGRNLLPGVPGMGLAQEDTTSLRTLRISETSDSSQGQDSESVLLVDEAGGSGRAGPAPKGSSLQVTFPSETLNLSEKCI
T1 sequence (P43116 whole entry): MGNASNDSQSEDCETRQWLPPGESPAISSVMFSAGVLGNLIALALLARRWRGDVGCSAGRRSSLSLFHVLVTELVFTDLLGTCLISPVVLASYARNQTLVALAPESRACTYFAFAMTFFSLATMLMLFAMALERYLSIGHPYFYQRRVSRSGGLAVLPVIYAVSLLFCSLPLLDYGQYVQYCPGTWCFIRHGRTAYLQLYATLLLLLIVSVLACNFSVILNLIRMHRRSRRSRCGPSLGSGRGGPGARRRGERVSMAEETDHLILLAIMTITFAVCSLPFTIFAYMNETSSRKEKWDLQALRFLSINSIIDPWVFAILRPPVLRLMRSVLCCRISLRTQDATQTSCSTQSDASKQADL

Structure (SMILES) | Ki (hEP2 [1]) [nM] | Ki (hEP4) [nM] | EC50 (hEP2 [2]) [nM] | EC50 (hEP2 [3]) [nM]
CCCC(OC)c1ccc(OC[C@@H]2[C@@H](C/C=C\CCCC(=O)O)[C@H](Cl)C[C@H]2O)cc1 (stereo partly drawn) [Example 45, (Z)-7-{(1R,2S,3R,5R)-5-Chloro-3-hydroxy-2-[4-(1-methoxy-butyl)-phenoxymethyl]-cyclopentyl}-hept-5-enoic acid] | 904 | 5280 | 661 | 47
CCCCCC(O)c1cccc(OC[C@@H]2[C@@H](C/C=C\CCCC(=O)O)[C@H](Cl)C[C@H]2O)c1 (stereo partly drawn) [Example 50, (Z)-7-{(1R,2S,3R,5R)-5-Chloro-3-hydroxy-2-[3-(1-hydroxy-hexyl)-phenoxymethyl]-cyclopentyl}-hept-5-enoic acid] | 826 | 1130 | 463 | 68
O=Cc1ccc(OC[C@@H]2[C@@H](C/C=C\CCCC(=O)O)[C@H](Cl)C[C@H]2O)cc1 [Example 42, (Z)-7-[(1R,2S,3R,5R)-5-Chloro-2-(4-formyl-phenoxymethyl)-3-hydroxy-cyclopentyl]-hept-5-enoic acid] | 1500 | > 10000 | > 10000 | 18
CC(C)C(O)c1cccc(OC[C@@H]2[C@@H](C/C=C\CCCC(=O)O)[C@H](Cl)C[C@H]2O)c1 (stereo partly drawn) [Example 51, (Z)-7-{(1R,2S,3R,5R)-5-Chloro-3-hydroxy-2-[3-(1-hydroxy-2-methyl-propyl)-phenoxymethyl]-cyclopentyl}-hept-5-enoic acid] | 772 | > 10000 | 196 | 39
CCCC(O)c1ccc(OC[C@@H]2[C@@H](C/C=C\CCCC(=O)O)[C@H](Cl)C[C@H]2O)cc1 (stereo partly drawn) [Example 44, (Z)-7-{(1R,2S,3R,5R)-5-Chloro-3-hydroxy-2-[4-(1-hydroxy-butyl)-phenoxymethyl]-cyclopentyl}-hept-5-enoic acid] | 2730 | > 10000 | 1100 | 66
CC(C)(c1ccccc1)c1ccc(OC[C@@H]2[C@@H](C/C=C\CCCC(=O)O)[C@H](Cl)C[C@H]2O)cc1 [Example 31, (Z)-7-{(1R,2S,3R,5R)-5-Chloro-3-hydroxy-2-[4-(1-methyl-1-phenyl-ethyl)-phenoxymethyl]-cyclopentyl}-hept-5-enoic acid] | > 10000 | 1740 | > 10000 | –
CCCCCC(O)c1ccc(OC[C@@H]2[C@@H](C/C=C\CCCC(=O)O)[C@H](Cl)C[C@H]2O)cc1 (stereo partly drawn) [Example 46, (Z)-7-{(1R,2S,3R,5R)-5-Chloro-3-hydroxy-2-[4-(1-hydroxy-hexyl)-phenoxymethyl]-cyclopentyl}-hept-5-enoic acid] | 2350 | 2650 | 531 | 119
CC(O)c1ccc(OC[C@@H]2[C@@H](C/C=C\CCCC(=O)O)[C@H](Cl)C[C@H]2O)cc1 (stereo partly drawn) [Example 47, (Z)-7-{(1R,2S,3R,5R)-5-Chloro-3-hydroxy-2-[4-(1-hydroxy-ethyl)-phenoxymethyl]-cyclopentyl}-hept-5-enoic acid] | 5290 | > 10000 | 1940 | 124
CC(O)c1cccc(OC[C@@H]2[C@@H](C/C=C\CCCC(=O)O)[C@H](Cl)C[C@H]2O)c1 (stereo partly drawn) [Example 54, (Z)-7-{(1R,2S,3R,5R)-5-Chloro-3-hydroxy-2-[3-(1-hydroxy-ethyl)-phenoxymethyl]-cyclopentyl}-hept-5-enoic acid] | 701 | > 10000 | 121 | 40
O=C(O)CCC/C=C\C[C@@H]1[C@@H](COc2cccc(C(O)Cc3ccccc3)c2)[C@H](O)C[C@H]1Cl (stereo partly drawn) [Example 53, (Z)-7-{(1R,2S,3R,5R)-5-Chloro-3-hydroxy-2-[3-(1-hydroxy-2-phenyl-ethyl)-phenoxymethyl]-cyclopentyl}-hept-5-enoic acid] | 1750 | 1850 | 1730 | 496

These reach a lower Ki (hEP2 [1]). Values come first.

Ki (hEP2 [1]) [nM] | Ki (hEP4) [nM] | EC50 (hEP2 [2]) [nM] | EC50 (hEP2 [3]) [nM] | Structure (SMILES)
129 | 2830 | 51 | 6.5 | O=C(O)CCC/C=C\C[C@@H]1[C@@H](COc2cccc3c2CCC3=O)[C@H](O)C[C@H]1Cl [Example 58, (Z)-7-[(1R,2S,3R,5R)-5-Chloro-3-hydroxy-2-(1-oxo-indan-4-yloxymethyl)-cyclopentyl]-hept-5-enoic acid]
207 | > 10000 | 374 | 14 | O=C(O)CCC/C=C\C[C@@H]1[C@@H](COc2cccc(CO)c2)[C@H](O)C[C@H]1Cl [Example 49, (Z)-7-[(1R,2S,3R,5R)-5-Chloro-3-hydroxy-2-(3-hydroxymethyl-phenoxymethyl)-cyclopentyl]-hept-5-enoic acid]
139 | 3000 | 108 | 1.2 | O=C(O)CCC/C=C\C[C@@H]1[C@@H](COc2cccc3c2CCC3O)[C@H](O)C[C@H]1Cl (stereo partly drawn) [Example 59, (Z)-7-[(1R,2S,3R,5R)-5-Chloro-3-hydroxy-2-(1-hydroxy-indan-4-yloxymethyl)-cyclopentyl]-hept-5-enoic acid]
195 | 1660 | 142 | 23 | COCc1c(C)cc(OC[C@@H]2[C@@H](C/C=C\CCCC(=O)O)[C@H](Cl)C[C@H]2O)cc1C [Example 57, (Z)-7-[(1R,2S,3R,5R)-5-Chloro-3-hydroxy-2-(4-methoxymethyl-3,5-dimethyl-phenoxymethyl)-cyclopentyl]-hept-5-enoic acid]
64 | 2200 | 27 | 1.8 | Cc1cc(OC[C@@H]2[C@@H](C/C=C\CCCC(=O)O)[C@H](Cl)C[C@H]2O)cc(C)c1CO [Example 56, (Z)-7-[(1R,2S,3R,5R)-5-Chloro-3-hydroxy-2-(4-hydroxymethyl-3,5-dimethyl-phenoxymethyl)-cyclopentyl]-hept-5-enoic acid]
